Data on 1 compound can be found in patent US4744985A, “Novel substances having carcinostatic and immunostimulating activity, process for preparing the same and carcinostatic agent containing the same” (Toyama Chemical Co., Ltd., priority 1979, dated 1988).

Assay [1] concerns B-16 melanoma. Description: Antitumor activity against B-16 melanoma (tumor growth). Type of assay: in vivo, BDF1 strain mice (male, 7 weeks old). The conditions noted are these: 20 mg/kg × 6. As to the method:
(§1) (1) B-16 Melanoma tumor cells were subcutaneously transplanted at the armpit to BDF1 strain mice (male, 7 weeks old) in an amount of 1×10^6 cells per mouse. Subsequently, TF-133a was intraperitoneally administered to the mice in a dosage of 5 mg/kg or 10 mg/kg once a day on the first day and from the third day to the seventh day, for 6 days in total, after the transplantation of the tumor cells. In the same manner as above, 0.2 ml of a physiological salt solution was administered to the control group, and 20 mg/kg of 5-FU to the group for 5-FU administration.

For assay [2], the system named is B-16 melanoma. Description: Metastasis of B-16 melanoma tumor cells to the lungs. Type of assay: in vivo, BDF1 strain mice (male, 7 weeks old). The note with it: 20 mg/kg × 6, 21st day. As to the method:
as §1
(2) The transplantation of B-16 melanoma tumor cells and the administration of TF-132a, TF-133a, 5-FU and a physiological salt solution were carried out in the same manner as in above (1). On the 21st day after the transplantation of the tumor cells, the mice were dissected, and the metastasis of the melanoma tumor cells to the lungs was observed.

Regarding `O=c1[nH]cc(F)c(=O)[nH]1` [5-FU], in assay [1], the Average tumor weight was found to be 4.21 g and the T/C is 72%. Further, in assay [2], the “Average number of metastasis” value was 24.8 and the “Percentage of metastasis inhibition” value came out at 20%.
